Several values for one entry are separate records, joined by “and”; a condition that tells them apart may be missing. Equal entries are not always repeated.
Biological target: catE / beta-secretase (BACE)
Test: CatE/BACE selectivity (ratio of IC50 values)
Assay type: biochemical
Settings: each value is an average of four experimental runs; multiple values = more than one experiment
Experimental: Selectivity was calculated as a ratio of inhibition (IC50) values in which the inhibition of beta-secretase was compared to the inhibition of other aspartyl proteases.
Selectivity is reported as the ratio of IC50(catE):IC50(BACE).
In the following examples, each value is an average of four experimental runs and multiple values for one compound indicate that more than one experiment was conducted.

Compound	IC50 catE/IC50 BACE
CSC1CCC(NCC(O)C(Cc2cc(F)cc(F)c2)NC(C)=O)(c2cccc(C(C)(C)C)c2)CC1 (single isomer, unassigned) [196B-15 Diastereomer B, N-[3-[1-(3-tert-Butyl-phenyl)-4-methylsulfanyl-cyclohexylamino]-1-(3,5-difluoro-benzyl)-2-hydroxy-propyl]-acetamide]	2.4 and > 2.5 and 2.3
CNC1CCC(NCC(O)C(Cc2cc(F)cc(F)c2)NC(C)=O)(c2cccc(C(C)(C)C)c2)CC1 (single isomer, unassigned) [196B-16 Diastereomer A, N-(4-(1-(3-tert-butylphenyl)-4-(methylamino)cyclohexylamino)-1-(3,5-difluorophenyl)-3-hydroxybutan-2-yl)acetamide]	>4.7
CNC1CCC(NCC(O)C(Cc2cc(F)cc(F)c2)NC(C)=O)(c2cccc(C(C)(C)C)c2)CC1 (single isomer, unassigned) [196B-17 Diastereomer B, N-(4-(1-(3-tert-butylphenyl)-4-(methylamino)cyclohexylamino)-1-(3,5-difluorophenyl)-3-hydroxybutan-2-yl)acetamide]	1.8
CC(=O)NC(Cc1cc(F)cc(F)c1)C(O)CNC1(c2cccc(C(C)(C)C)c2)CCC(N)CC1 (single isomer, unassigned) [196B-18 Diastereomer A, N-(4-(1-(3-tert-butylphenyl)-4-aminocyclohexylamino)-1-(3,5-difluorophenyl)-3-hydroxybutan-2-yl)acetamide]	>8.4
CC(=O)NC(Cc1cc(F)cc(F)c1)C(O)CNC1(c2cccc(C(C)(C)C)c2)CCC(N)CC1 (single isomer, unassigned) [196B-19 Diastereomer B, N-(4-(1-(3-tert-butylphenyl)-4-aminocyclohexylamino)-1-(3,5-difluorophenyl)-3-hydroxybutan-2-yl)acetamide]	>8.4
CC(=O)NC(Cc1cc(F)cc(F)c1)C(O)CNC1(c2cccc(C(C)(C)C)c2)CCC(C(F)(F)F)CC1 (single isomer, unassigned) [196B-21 Diastereomer A, N-(4-(1-(3-tert-butylphenyl)-4-(trifluoromethyl)cyclohexylamino)-1-(3,5-difluorophenyl)-3-hydroxybutan-2-yl)acetamide]	6.4
CC(=O)NC(Cc1cc(F)cc(F)c1)C(O)CNC1(c2cccc(C(C)(C)C)c2)CCC(C(F)(F)F)CC1 (single isomer, unassigned) [196B-22 Diastereomer B, N-(4-(1-(3-tert-butylphenyl)-4-(trifluoromethyl)cyclohexylamino)-1-(3,5-difluorophenyl)-3-hydroxybutan-2-yl)acetamide]	2.5
CC(=O)NC1CCC(NCC(O)C(Cc2cc(F)cc(F)c2)NC(C)=O)(c2cccc(C(C)(C)C)c2)CC1 (single isomer, unassigned) [196B-23 Diastereomer A, N-[3-[4-Acetylamino-1-(3-tert-butyl-phenyl)-cyclohexylamino]-1-(3,5-difluoro-benzyl)-2-hydroxy-propyl]-acetamide]	29.5
CC(=O)NC(Cc1cc(F)cc(F)c1)C(O)CNC1(c2cccc(C(C)(C)C)c2)CCC([S+](C)[O-])CC1 (single isomer, unassigned) [196B-24 Diastereomer B, N-(4-(1-(3-tert-butylphenyl)-4-(methylsulfinyl)cyclohexylamino)-1-(3,5-difluorophenyl)-3-hydroxybutan-2yl)acetamide]	3.0
CC(=O)NC(Cc1cc(F)cc(F)c1)C(O)CNC1(c2cccc(C(C)(C)C)c2)CCC([S+](C)[O-])CC1 (single isomer, unassigned) [196B-25 Diastereomer A, N-(4-(1-(3-tert-butylphenyl)-4-(methylsulfinyl)cyclohexylamino)-1-(3,5-difluorophenyl)-3-hydroxybutan-2yl)acetamide]	1.1
CC(=O)NC(Cc1cc(F)cc(F)c1)C(O)CNC1(c2cccc(C(C)(C)C)c2)CCC(O)(CO)CC1 (single isomer, unassigned) [196B-27 Diastereomer B, N-[3-[1-(3-tert-Butyl-phenyl)-4-hydroxy-4-hydroxymethyl-cyclohexylamino]-1-(3,5-difluoro-benzyl)-2-hydroxy-propyl]-acetamide]	>5.3
CC(=O)NC(Cc1cc(F)cc(F)c1)C(O)CNC1(c2cccc(C(C)(C)C)c2)CCC(O)(CO)CC1 (single isomer, unassigned) [196B-28 Diastereomer A, N-[3-[1-(3-tert-Butyl-phenyl)-4-hydroxy-4-hydroxymethyl-cyclohexylamino]-1-(3,5-difluoro-benzyl)-2-hydroxy-propyl]-acetamide]	>7.4
COC(=O)NC1CCC(NCC(O)C(Cc2cc(F)cc(F)c2)NC(C)=O)(c2cccc(C(C)(C)C)c2)CC1 (single isomer, unassigned) [196B-29 Diastereomer A, methyl 4-(3-acetamido-4-(3,5-difluorophenyl)-2-hydroxybutylamino)-4-(3-tert-butylphenyl)cyclohexylcarbamate]	13.1
CC(=O)NC(Cc1cc(F)cc(F)c1)C(O)CNC1(c2cccc(C(C)(C)C)c2)CCC(N(O)C(C)=O)CC1 (single isomer, unassigned) [196B-31 Diastereomer A, N-(4-(3-acetamido-4-(3,5-difluorophenyl)-2-hydroxybutylamino)-4-(3-tert-butylphenyl)cyclohexyl)-N-hydroxyacetamide]	13.0
CC(=O)NC(Cc1cc(F)cc(F)c1)C(O)CNC1(c2cccc(C(C)(C)C)c2)CCC(NS(C)(=O)=O)CC1 (single isomer, unassigned) [196B-35 Diastereomer B, N-(4-(1-(3-tert-butylphenyl)-4-(methylsulfonamido)cyclohexylamino)-1-(3,5-difluorophenyl)-3-hydroxybutan-2-yl)acetamide]	>3.0
CC(=O)NC(Cc1cc(F)cc(F)c1)C(O)CNC1(c2cccc(C(C)(C)C)c2)CCC(NC=O)CC1 (single isomer, unassigned) [196B-36 Diastereomer A, N-(4-(1-(3-tert-butylphenyl)-4-formamidocyclohexylamino)-1-(3,5-difluorophenyl)-3-hydroxybutan-2-yl)acetamide]	26.5
CNC(=O)NC1CCC(NCC(O)C(Cc2cc(F)cc(F)c2)NC(C)=O)(c2cccc(C(C)(C)C)c2)CC1 (single isomer, unassigned) [196B-38 Diastereomer B, 1-(4-(3-acetamido-4-(3,5-difluorophenyl)-2-hydroxybutylamino)-4-(3-tert-butylphenyl)cyclohexyl)-3-methylurea]	>3.5
CNC(=O)NC1CCC(NCC(O)C(Cc2cc(F)cc(F)c2)NC(C)=O)(c2cccc(C(C)(C)C)c2)CC1 (single isomer, unassigned) [196B-39 Diastereomer A, 1-(4-(3-acetamido-4-(3,5-difluorophenyl)-2-hydroxybutylamino)-4-(3-tert-butylphenyl)cyclohexyl)-3-methylurea]	>1.3
CC(=O)NC(Cc1ccc(O)c(F)c1)C(O)CNC1(c2cccc(C(C)C)c2)CCCCC1 (stereo not shown) [Example 196B-1, N-{1-(3-Fluoro-4-hydroxy-benzyl)-2-hydroxy-3[1-(3-isopropyl-phenyl)-cyclohexylamino]-propyl}-acetamide]	3.2

From patent US20060014790A1, “Methods of treatment of amyloidosis using spirocyclohexane aspartyl-protease inhibitors” (priority 2004, published 2006)
